In patent publication US20140221286A1, “SODIUM CHANNEL BLOCKERS REDUCE GLUCAGON SECRETION” (Gilead Sciences, Inc., priority 2011, published 2014):

Tests used:
α-TC1 clone 9 cells = type: cell-based; conditions: for Glucagon Secretion % Inhibition: veratridine-induced (30 μM for 1 hour), at a given concentration (not given)
Method: (§1) Voltage-dependent block (VDB) of […] was determined by whole-cell voltage-clamp recordings of sodium current using a QPatch 16× automated electrophysiological system in HEK 293 cells overexpressing Nav 1.3 and Nav 1.7 sodium channels, respectively. VDB of peak current was measured using an 8 s conditioning prepulse (to -55 mV for NaV1.3 and to −60 mV for […]) followed by a test pulse (0 mV, 20 ms). Currents are normalized to the peak current recorded in the absence of drug and expressed as percent inhibition. […] Glucagon secretion in the cells was induced by the treatment with veratridine at 30 μM for 1 hour in Krebs-Ringer buffer containing 0.1% BSA. Percent inhibition of glucagon secretion by Na channel blockers was calculated from the reduction of veratridine-induced glucagon secretion in the absence of drug.
Cells were seeded at 0.4×10^5/well in 96-well plates and allowed to recover for 1 day. The media was then changed to serum-free DMEM and incubated overnight. Cells were then treated with sodium-channel blockers in the presence of veratridine (15 μM) in Krebs-Ringer buffer containing 0.1% BSA and 3 mM glucose for 1 h. Supernatants were collected and stored at −80° C. until analysis. Glucagon levels were measured by an ELISA kit.

hNaV1.3 = target: T1, hNaV1.3 (Homo sapiens, UniProt Q9NY46); assay: Voltage-dependent block (VDB) of hNaV1.3, QPatch whole-cell voltage-clamp in HEK-293 cells; type: cell-based; conditions: 8 s prepulse to -55 mV; at a given concentration (not given)
T1 construct: (Vanderbilt University, Nashville, Tenn.)
Method: as §1
(Vanderbilt University, Nashville, Tenn.). The cells were continuously maintained in a humidified, 5% CO2 atmosphere at 37° C. in DMEM high glucose growth medium supplemented with 10% FBS, 2 mM L-glutamine, 100 U/mL penicillin, 100 μg/mL streptomycin, 1 mg/mL G418 and 3 μg/mL puromycin.
(§2) Whole-cell voltage-clamp recordings were used to measure the activity of test compounds against hNaV1.3 and hNaV1.7. Sodium currents were recorded at room temperature using a QPatch 16× automated electrophysiological system (Sophion Bioscience, Copenhagen, Denmark). Cells were washed with PBS and then incubated with Detachin for 2 minutes at room temperature. Cells were then resuspended in growth media, pelleted by centrifugation and resuspended in CHO-S-SFM II serum free media supplemented with 100 U/mL penicillin, 100 μg/mL streptomycin and 10 mM HEPES. The cells were allowed to recover for 30 min at room temperature with constant stirring and then loaded into the QPatch cell holder.
(§3) The cells were loaded into primed single hole (2 MΩ) large QPlates and the whole-cell configuration was established using the default protocol. Cells were allowed to stabilize for 10 min after establishment of the whole-cell configuration before current was measured. […] All currents are low-pass Bessel filtered at 5 kHz and digitized at 50 kHz.
(§4) Specific voltage-clamp protocols assessing voltage-dependent block (VDB, also termed state-dependent block) are used. VDB of peak current was measured following an 8 s conditioning prepulse (to -55 mV for NaV1.3 and to −60 mV for NaV1.7) followed by a test pulse to 0 mV (20 ms). An interpulse (−120 mV, 10 ms) was used to recover non-drug bound channels from fast inactivation. The prepulse potential was determined by the steady-state inactivation curves for NaV1.3 and NaV1.7. […] Multiple applications of drug were used to ensure complete solution exchange and the cells were allowed to stabilize in the drug containing solution for two minutes. Currents were normalized to the peak current recorded in the absence of drug and expressed as percent inhibition.

hNaV1.7 = hNaV1.7 (Homo sapiens, UniProt Q15858); assay: Voltage-dependent block (VDB) of hNaV1.7, QPatch whole-cell voltage-clamp in HEK-293 cells; type: cell-based; conditions: 8 s prepulse to −60 mV; at a given concentration (not given)
Method: as §1
The cells were continuously maintained in a humidified, 5% CO2 atmosphere at 37° C. in MEM growth medium supplemented with 10% FBS, 2 mM L-glutamine, 100 U/mL penicillin, 100 μg/mL streptomycin, 0.6 mg/mL G418 and 2 μg/mL blastocydin.
as §2, §3, §4

rat pancreatic islets [1] = assay: Glucagon secretion in rat pancreatic islets under low glucose (3 mM), ELISA; type: cell-based
rat pancreatic islets [2] = assay: Veratridine-induced glucagon secretion in rat pancreatic islets; type: cell-based
human pancreatic islets = assay: Veratridine-induced glucagon secretion in human pancreatic islets; type: cell-based; conditions: veratridine 30 μM
ZDF diabetic rats = assay: ZDF diabetic rats, animal model of type 2 diabetes; type: in vivo, rat
Method: All sections from fluorescent staining were viewed under fluorescent microscope and the stained areas were digitally photographed at a magnification of 20×. The images taken at different magnification were normalized using the standard ruler grade (S1 Finder Graticule, 68040, Electron Microscopy Science, Hatfield, Pa.). Analyses of islet areas and entire section areas were performed using ImageJ software (NIH, MD). Three sections from each of 6 animals per treatment group were analyzed. Data are presented as mean±SEM. *, p<0.05; **, p<0.01; ***, p<0.001 by One-way ANOVA.
Male ZDF Leprfa/Crl rats were received at 5 weeks of age from Charles River Laboratories Inc., (Wilmington, Mass.) and were acclimated until study initiation at 6 weeks of age. Drugs were given to the animals in Purina 5008 for 10 weeks at doses approximately 170 mg/kg/d of ranolazine, 0.6 mg/kg/d of compound A and 30 mg/kg/d of sitagliptin as positive control. Fasting (12-14 h fast) and non-fasting blood samples were obtained by tail-nick and blood glucose was measured using a Freestyle Lite glucose meter (Abbott Laboratories Inc., Abbott Park, Ill.). HbA1c levels were monitored every other week. Twenty four hour water consumption as surrogate marker for diabetes for each rat was measured at least once per week.

T1 sequence (Q9NY46 1-1951 isoform Q9NY46-4): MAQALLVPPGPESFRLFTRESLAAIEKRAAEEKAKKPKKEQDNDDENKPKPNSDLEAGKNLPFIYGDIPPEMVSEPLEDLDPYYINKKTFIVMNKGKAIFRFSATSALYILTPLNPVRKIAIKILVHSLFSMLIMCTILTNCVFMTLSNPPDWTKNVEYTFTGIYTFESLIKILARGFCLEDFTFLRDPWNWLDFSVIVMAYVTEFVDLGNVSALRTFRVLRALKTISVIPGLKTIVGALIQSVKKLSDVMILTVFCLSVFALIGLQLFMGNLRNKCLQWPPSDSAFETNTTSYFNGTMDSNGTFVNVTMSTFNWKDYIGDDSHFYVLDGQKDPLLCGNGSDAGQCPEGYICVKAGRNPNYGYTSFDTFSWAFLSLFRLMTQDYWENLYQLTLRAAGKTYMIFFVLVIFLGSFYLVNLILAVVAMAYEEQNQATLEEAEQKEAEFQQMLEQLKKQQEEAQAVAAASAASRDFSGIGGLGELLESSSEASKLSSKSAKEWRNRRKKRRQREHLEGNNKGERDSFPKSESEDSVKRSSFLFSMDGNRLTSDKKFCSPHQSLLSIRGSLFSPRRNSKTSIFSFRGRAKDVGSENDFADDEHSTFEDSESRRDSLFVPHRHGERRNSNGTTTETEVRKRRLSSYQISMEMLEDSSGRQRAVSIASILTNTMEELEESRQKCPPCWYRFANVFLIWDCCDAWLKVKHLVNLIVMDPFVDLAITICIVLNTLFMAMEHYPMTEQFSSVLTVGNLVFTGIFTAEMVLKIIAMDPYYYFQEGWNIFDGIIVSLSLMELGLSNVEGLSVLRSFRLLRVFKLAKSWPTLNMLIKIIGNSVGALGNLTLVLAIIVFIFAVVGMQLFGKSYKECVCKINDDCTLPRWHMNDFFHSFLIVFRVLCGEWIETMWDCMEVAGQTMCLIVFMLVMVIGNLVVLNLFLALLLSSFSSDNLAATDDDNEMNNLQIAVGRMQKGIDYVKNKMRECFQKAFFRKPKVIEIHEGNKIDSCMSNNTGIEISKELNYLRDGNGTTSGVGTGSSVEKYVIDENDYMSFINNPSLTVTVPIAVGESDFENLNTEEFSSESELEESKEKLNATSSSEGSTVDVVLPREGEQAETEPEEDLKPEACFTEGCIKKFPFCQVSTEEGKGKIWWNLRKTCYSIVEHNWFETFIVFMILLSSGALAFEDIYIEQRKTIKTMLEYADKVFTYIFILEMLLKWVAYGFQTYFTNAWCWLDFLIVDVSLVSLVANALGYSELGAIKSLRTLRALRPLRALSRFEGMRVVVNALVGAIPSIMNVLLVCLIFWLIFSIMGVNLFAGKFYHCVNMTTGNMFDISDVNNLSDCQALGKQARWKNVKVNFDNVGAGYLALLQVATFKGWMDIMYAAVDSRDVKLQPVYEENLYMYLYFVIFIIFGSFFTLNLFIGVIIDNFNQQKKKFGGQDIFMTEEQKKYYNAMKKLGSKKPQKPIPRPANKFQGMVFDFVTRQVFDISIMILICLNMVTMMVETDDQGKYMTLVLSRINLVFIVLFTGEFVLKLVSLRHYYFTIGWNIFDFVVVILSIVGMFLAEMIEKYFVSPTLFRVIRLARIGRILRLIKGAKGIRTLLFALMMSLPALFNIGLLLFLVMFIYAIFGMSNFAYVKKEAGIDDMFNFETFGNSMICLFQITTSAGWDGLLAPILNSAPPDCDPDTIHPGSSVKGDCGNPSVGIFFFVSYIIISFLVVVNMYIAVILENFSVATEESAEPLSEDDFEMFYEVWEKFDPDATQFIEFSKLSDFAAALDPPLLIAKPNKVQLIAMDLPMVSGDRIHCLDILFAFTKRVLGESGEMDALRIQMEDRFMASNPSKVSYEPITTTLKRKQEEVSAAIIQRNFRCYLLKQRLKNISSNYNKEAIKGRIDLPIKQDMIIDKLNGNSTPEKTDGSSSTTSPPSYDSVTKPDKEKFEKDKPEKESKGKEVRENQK
T1 sequence (Q07699 19-218 partner): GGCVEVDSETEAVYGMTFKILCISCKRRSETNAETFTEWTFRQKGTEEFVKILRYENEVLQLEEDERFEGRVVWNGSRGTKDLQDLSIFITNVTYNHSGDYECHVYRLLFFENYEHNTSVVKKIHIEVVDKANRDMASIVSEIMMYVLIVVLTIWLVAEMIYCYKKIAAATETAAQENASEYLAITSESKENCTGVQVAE
T1 sequence (O60939 30-215 partner): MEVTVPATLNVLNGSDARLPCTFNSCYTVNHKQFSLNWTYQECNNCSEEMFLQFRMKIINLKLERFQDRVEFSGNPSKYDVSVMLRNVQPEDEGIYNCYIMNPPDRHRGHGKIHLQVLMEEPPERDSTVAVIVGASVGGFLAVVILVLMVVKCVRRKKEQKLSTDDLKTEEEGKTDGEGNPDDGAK
hNaV1.7, sequence (Q15858 1-1977 isoform Q15858-3): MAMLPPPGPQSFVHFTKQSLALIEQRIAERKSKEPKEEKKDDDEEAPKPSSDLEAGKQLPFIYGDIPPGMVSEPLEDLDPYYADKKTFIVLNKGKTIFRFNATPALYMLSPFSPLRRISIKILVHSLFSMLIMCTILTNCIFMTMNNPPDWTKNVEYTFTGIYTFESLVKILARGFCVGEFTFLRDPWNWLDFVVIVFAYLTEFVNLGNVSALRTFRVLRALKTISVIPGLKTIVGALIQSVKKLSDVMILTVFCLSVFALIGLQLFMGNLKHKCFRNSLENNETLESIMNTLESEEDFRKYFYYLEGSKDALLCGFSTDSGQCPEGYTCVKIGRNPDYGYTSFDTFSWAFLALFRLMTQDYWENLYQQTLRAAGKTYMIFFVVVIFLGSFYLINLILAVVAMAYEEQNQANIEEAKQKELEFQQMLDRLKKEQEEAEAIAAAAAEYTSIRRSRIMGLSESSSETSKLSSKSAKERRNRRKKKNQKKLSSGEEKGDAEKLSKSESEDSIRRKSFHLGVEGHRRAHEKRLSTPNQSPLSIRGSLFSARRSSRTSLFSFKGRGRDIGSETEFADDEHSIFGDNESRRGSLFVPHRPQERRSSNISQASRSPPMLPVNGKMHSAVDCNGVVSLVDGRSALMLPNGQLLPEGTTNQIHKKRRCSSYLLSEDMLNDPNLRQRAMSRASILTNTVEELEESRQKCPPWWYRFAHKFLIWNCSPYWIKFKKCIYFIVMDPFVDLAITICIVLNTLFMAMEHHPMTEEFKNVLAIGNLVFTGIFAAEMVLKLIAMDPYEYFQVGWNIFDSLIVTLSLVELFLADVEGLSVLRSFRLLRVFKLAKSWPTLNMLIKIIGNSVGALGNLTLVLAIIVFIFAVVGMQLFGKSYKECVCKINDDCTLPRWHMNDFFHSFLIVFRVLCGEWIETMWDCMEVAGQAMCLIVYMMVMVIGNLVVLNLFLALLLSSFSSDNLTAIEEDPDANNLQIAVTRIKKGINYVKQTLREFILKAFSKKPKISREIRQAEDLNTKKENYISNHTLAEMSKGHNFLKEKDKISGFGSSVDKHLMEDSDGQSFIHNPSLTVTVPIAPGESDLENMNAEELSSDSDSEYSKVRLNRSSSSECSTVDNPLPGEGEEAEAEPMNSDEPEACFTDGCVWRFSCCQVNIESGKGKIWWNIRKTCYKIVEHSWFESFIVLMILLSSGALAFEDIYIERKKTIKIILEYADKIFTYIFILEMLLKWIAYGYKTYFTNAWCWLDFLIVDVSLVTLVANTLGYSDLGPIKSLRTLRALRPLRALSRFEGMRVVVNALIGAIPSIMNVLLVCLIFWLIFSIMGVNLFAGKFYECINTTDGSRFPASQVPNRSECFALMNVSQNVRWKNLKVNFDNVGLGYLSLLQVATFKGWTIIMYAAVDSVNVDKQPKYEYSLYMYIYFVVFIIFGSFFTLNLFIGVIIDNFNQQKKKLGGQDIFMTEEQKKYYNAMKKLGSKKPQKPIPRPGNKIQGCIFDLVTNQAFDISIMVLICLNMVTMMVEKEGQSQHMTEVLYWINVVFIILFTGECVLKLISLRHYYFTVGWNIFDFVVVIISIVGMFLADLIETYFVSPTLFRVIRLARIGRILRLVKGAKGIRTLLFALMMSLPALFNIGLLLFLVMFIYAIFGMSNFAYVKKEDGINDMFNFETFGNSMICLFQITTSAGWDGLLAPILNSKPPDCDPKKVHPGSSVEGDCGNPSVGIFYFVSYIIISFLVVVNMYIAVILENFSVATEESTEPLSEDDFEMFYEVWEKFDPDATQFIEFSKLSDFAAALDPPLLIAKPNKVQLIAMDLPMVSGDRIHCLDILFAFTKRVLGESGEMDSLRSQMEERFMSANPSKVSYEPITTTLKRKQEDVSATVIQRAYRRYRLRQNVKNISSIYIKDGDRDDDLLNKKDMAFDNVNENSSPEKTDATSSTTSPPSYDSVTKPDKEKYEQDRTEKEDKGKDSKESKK
hNaV1.7, sequence (Q07699 19-218 partner): as the sequence (Q07699 19-218 partner) above

| SMILES | Glucagon Secretion % Inhibition (α-TC1 clone 9 cells) [%] | hNav1.3 VDB % Inhibition (hNaV1.3) [%] | hNav1.7 VDB % Inhibition (hNaV1.7) [%] | further results |
| --- | --- | --- | --- | --- |
| O=C(NCc1ccc(C(F)(F)F)c(Cl)c1)c1ccc(S(=O)(=O)Nc2ncc(Cl)s2)cc1 [C, N-(3-chloro-4-(trifluoromethyl)benzyl)-4-(N-(5-chlorothiazol-2-yl)sulfamoyl)benzamide] | 41 | 92.16 | 7.81 |  |
| FC(F)(F)Oc1ccc(-c2ccc3nnc(Oc4ccccc4)n3c2)cc1 [D, 3-phenoxy-6-(4-(trifluoromethoxy)phenyl)-[1,2,4]triazolo[4,3-a]pyridine] | 33.75 | 49.35 | 89.74 |  |
| CC(C)(C)OC(=O)N[C@H](Cc1ccccc1)C(=O)N[C@@H]1CCc2ccccc2N(CC(F)(F)F)C1 [E, tert-butyl (R)-1-oxo-3-phenyl-1-((R)-1-(2,2,2-trifluoroethyl)-2,3,4,5-tetrahydro-1H-benzo[b]azepin-3-ylamino)propan-2-ylcarbamate] | 34.53 | 23.18 | 23.73 |  |
| COCC(F)(F)c1nnc2ccc(-c3ccc(Oc4ccc(Cl)cc4)cc3)cn12 [F, 6-(4-(4-chlorophenoxy)phenyl)-3-(1,1-difluoro-2-methoxyethyl)-[1,2,4]triazolo[4,3-a]pyridine] | 4 | 2.32 | 14.72 |  |
| CS(=O)(=O)Nc1ccc(-c2ccc(Cl)c(C(F)(F)F)c2)c(Cl)c1 [G, N-(2,4′-dichloro-3′-(trifluoromethyl)biphenyl-4-yl)methanesulfonamide] | 3.5 | 4.01 | 6.04 |  |
| NC1=N[C@H](O)[C@H]2[C@H]3O[C@]4(O)O[C@@H]([C@@H](O)[C@@]2(N1)[C@@H]4O)[C@]3(O)CO [TTX, tetrodotoxin] |  |  |  | maximal reduction of glucagon secretion as compared to the vehicle control (rat pancreatic islets [1]): 47±6%; reduction of veratridine-induced glucagon secretion (in words) (rat pancreatic islets [2]): concentration-dependently reduced; reduction of veratridine-induced increase of glucagon secretion (α-TC1 clone 9 cells): 100±6% |
| COc1ccc(C(=O)O[C@H]2CC[C@@]3(C)[C@@H]4CC[C@H]5[C@]6(O)C[C@H](O)[C@@]7(O)[C@@H](CN8C[C@@H](C)CC[C@H]8[C@@]7(C)O)[C@]6(O)C[C@@]53O[C@]24O)cc1OC [Veratridine] |  |  |  | increase in glucagon secretion (rat pancreatic islets [2]; veratridine at 30 μM): more than 3 fold; increase in glucagon secretion (human pancreatic islets): ~9 fold |
| N[C@@H](CC(=O)N1CCn2c(nnc2C(F)(F)F)C1)Cc1cc(F)c(F)cc1F [sitagliptin] |  |  |  | insulin staining per islet (ZDF diabetic rats; 10 weeks treatment): 90.0±2.1%; islet area/pancreas area (ZDF diabetic rats; 10 weeks treatment): 0.98±0.3%; staining of glucagon per islet versus vehicle (ZDF diabetic rats; 10 weeks treatment): significantly less; water consumption (surrogate marker for diabetes) (ZDF diabetic rats; in Purina 5008 diet, during diabetes development): significantly prevented the increase; HbA1c levels versus vehicle group (ZDF diabetic rats; in Purina 5008 diet, weeks 4, 6 and 8): significantly lower; fasting plasma glucose levels versus vehicle (ZDF diabetic rats; in Purina 5008 diet, weeks 7 and 9): significantly lower |
